In the supplement of paper PMC11208160:

Assay: recombinant UMI read abundance after kanamycin selection (control-corrected) (log10(CPM+1)); higher = more efficient recombination; extreme values may be limits of the assay; sequences stand for … in AGTGCAGAGAAAATCGGCCAGTTTTCTCTGCCTGCAGTCCGCATGCCGTGGGACCCCTTGGGTTCTAACCTGTTGCCTAGATTTATGCAGCGGACTGCCTTTCTCCCAAAGTGATAAACCGG…AGGTTGGTTTCACT; site = the 11-nt donor
Summary of the method: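 Values are reported as log10(CPM+1), obtained by converting sequencing counts to CPM, averaging replicates and scaling by control-derived factors. The counts came from recombinant UMIs amplified by PCR across the donor–target junction. These UMIs came from a pooled Escherichia coli screen of donor and donor-binding-loop pairs for the IS621 bridge recombinase, plated with IPTG (0.07 mM) plus kanamycin or left unselected, in two replicates each.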
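Also: IS621 bridge recombinase in Escherichia coli cells against a fixed T5 target plasmid.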

Sequence	recombinant UMI read abundance (log10)
CTGCTCCCATGGACCGGTTTTCCCGGTAATCCGTATTTGCT (site CTGCTACCTAG)	0
CTGCTCCCATGGACCGGTTTTCCCGGTAATCCGTATTTGCT (site CTGCTCCCTAG)	1.78
CTGCTCCCATGGACCGGTTTTCCCGGTAATCCGTATTTGCT (site CTGCTGCCTAG)	0
CTGCTCCCATGGACCGGTTTTCCCGGTAATCCGTATTTGCT (site CTGCTTCCTAG)	0
CTGCTGCCATGGACCGGTTTTCCCGGTAATCCGTATTTGGC (site CTGCTGCCTGC)	0
CTGGAAACATGGACCGGTTTTCCCGGTAATCCGTATTTGTA (site CTGGAAACTTA)	2.14
CTGGAAACATGGACCGGTTTTCCCGGTAATCCGTATTTGTA (site CTGGAAACTTC)	0.294
CTGGAAACATGGACCGGTTTTCCCGGTAATCCGTATTTGTA (site CTGGAAACTTG)	1.22
CTGGAAACATGGACCGGTTTTCCCGGTAATCCGTATTTGTA (site CTGGAAACTTT)	1.81
CTGGAAGCATGGACCGGTTTTCCCGGTAATCCGTATTTGCA (site CTGGAAACTTG)	0.803
CTGGAAGCATGGACCGGTTTTCCCGGTAATCCGTATTTGCA (site CTGGAACCTTG)	0
CTGGAAGCATGGACCGGTTTTCCCGGTAATCCGTATTTGCA (site CTGGAAGCTTG)	1.04
CTGGAAGCATGGACCGGTTTTCCCGGTAATCCGTATTTGCA (site CTGGAATCTTG)	3.42
CTGGACACATGGACCGGTTTTCCCGGTAATCCGTATTTGAG (site CTGGACACTCT)	1.47
CTGGAGGCATGGACCGGTTTTCCCGGTAATCCGTATTTGTG (site ATGGAGGCTCA)	0.00337
CTGGAGGCATGGACCGGTTTTCCCGGTAATCCGTATTTGTG (site CTGGAGGCTCA)	1.02
CTGGAGGCATGGACCGGTTTTCCCGGTAATCCGTATTTGTG (site GTGGAGGCTCA)	0.0315
CTGGAGGCATGGACCGGTTTTCCCGGTAATCCGTATTTGTG (site TTGGAGGCTCA)	0.0143
CTGGATACATGGACCGGTTTTCCCGGTAATCCGTATTTGCA (site CTGGAAACTTG)	1.14
CTGGATACATGGACCGGTTTTCCCGGTAATCCGTATTTGCA (site CTGGACACTTG)	1.92
CTGGATACATGGACCGGTTTTCCCGGTAATCCGTATTTGCA (site CTGGAGACTTG)	0.473
CTGGATACATGGACCGGTTTTCCCGGTAATCCGTATTTGCA (site CTGGATACTTG)	1.81
CTGGATACATGGACCGGTTTTCCCGGTAATCCGTATTTGTC (site CTGGATACTGA)	1.89
CTGGGACCATGGACCGGTTTTCCCGGTAATCCGTATTTGGT (site CTGGGACCTAC)	0.0117
CTGGGATCATGGACCGGTTTTCCCGGTAATCCGTATTTGCT (site CTGGGATCTAG)	1.9

Sequence	recombinant UMI read abundance (log10)
CTGGGCGCATGGACCGGTTTTCCCGGTAATCCGTATTTGTA (site CTGGGCGCTTA)	1.62
CTGGTATCATGGACCGGTTTTCCCGGTAATCCGTATTTGAA (site CTAGTATCTGT)	2.25
CTGGTATCATGGACCGGTTTTCCCGGTAATCCGTATTTGAA (site CTGGTATCTTT)	2.5
CTGGTTACATGGACCGGTTTTCCCGGTAATCCGTATTTGAG (site CTGGTTACTCT)	1.7
CTGTCAGCATGGACCGGTTTTCCCGGTAATCCGTATTTGGG (site CTGTCAGCTCC)	0.0174
CTGTCCGCATGGACCGGTTTTCCCGGTAATCCGTATTTGAT (site CTGTCCGCTAT)	1.96
CTGTCGACATGGACCGGTTTTCCCGGTAATCCGTATTTGGG (site CAGTCGACTCC)	0.00865
CTGTCGACATGGACCGGTTTTCCCGGTAATCCGTATTTGGG (site CCGTCGACTCC)	0.0205
CTGTCGACATGGACCGGTTTTCCCGGTAATCCGTATTTGGG (site CGGTCGACTCC)	0.012
CTGTCGACATGGACCGGTTTTCCCGGTAATCCGTATTTGGG (site CTGTCGACTCC)	0.0289
CTGTCTACATGGACCGGTTTTCCCGGTAATCCGTATTTGTT (site CTGTCTACTAA)	0.252
CTGTGATCATGGACCGGTTTTCCCGGTAATCCGTATTTGAA (site CTGTGATCTTT)	2.65
CTGTGTGCATGGACCGGTTTTCCCGGTAATCCGTATTTGGT (site CTGTGTGCTAC)	1.44
CTGTTTGCATGGACCGGTTTTCCCGGTAATCCGTATTTGAA (site CTGTTTGCTTT)	1.66
CTTCCGACATGGACCGGTTTTCCCGGTAATCCGTATTTGGA (site CTTCCGACTTC)	0.0169
CTTCCGGCATGGACCGGTTTTCCCGGTAATCCGTATTTGAT (site CTTCCGGCTAT)	1.14
CTTCGCTCATGGACCGGTTTTCCCGGTAATCCGTATTTGTA (site CTTCACTCTTA)	1.14
CTTCGCTCATGGACCGGTTTTCCCGGTAATCCGTATTTGTA (site CTTCCCTCTTA)	0.0134
CTTCGCTCATGGACCGGTTTTCCCGGTAATCCGTATTTGTA (site CTTCGCTCTTA)	1.8
CTTCGCTCATGGACCGGTTTTCCCGGTAATCCGTATTTGTA (site CTTCTCTCTTA)	0.00289
CTTCTAACATGGACCGGTTTTCCCGGTAATCCGTATTTGGA (site CTACTAACTTC)	0.0127
CTTCTAACATGGACCGGTTTTCCCGGTAATCCGTATTTGGA (site CTCCTAACTTC)	0.00424
CTTCTAACATGGACCGGTTTTCCCGGTAATCCGTATTTGGA (site CTGCTAACTTC)	0.00962
CTTCTAACATGGACCGGTTTTCCCGGTAATCCGTATTTGGA (site CTTCTAACTTC)	0.0115
CTTCTCTCATGGACCGGTTTTCCCGGTAATCCGTATTTGAA (site CTTCTCTCTTA)	0

Sequence	recombinant UMI read abundance (log10)
CTTCTCTCATGGACCGGTTTTCCCGGTAATCCGTATTTGAA (site CTTCTCTCTTC)	0.199
CTTCTCTCATGGACCGGTTTTCCCGGTAATCCGTATTTGAA (site CTTCTCTCTTG)	0
CTTCTCTCATGGACCGGTTTTCCCGGTAATCCGTATTTGAA (site CTTCTCTCTTT)	0.96
CTTGACACATGGACCGGTTTTCCCGGTAATCCGTATTTGAC (site CTTGACACTGT)	0.445
CTTGCCCCATGGACCGGTTTTCCCGGTAATCCGTATTTGTG (site CTTGCCCCTCA)	0.0167
CTTGTACCATGGACCGGTTTTCCCGGTAATCCGTATTTGAC (site CTAGTATCTGT)	0
CTTGTACCATGGACCGGTTTTCCCGGTAATCCGTATTTGAC (site CTTGTACCTGT)	0
CTTGTGGCATGGACCGGTTTTCCCGGTAATCCGTATTTGGG (site CTTGTGGCTCC)	0.00701
CTTGTTGCATGGACCGGTTTTCCCGGTAATCCGTATTTGGT (site CTTGTTGCTAC)	1.26
CTTTCGCCATGGACCGGTTTTCCCGGTAATCCGTATTTGCT (site CTTTCGCCTAG)	0.0294
CTTTCTCCATGGACCGGTTTTCCCGGTAATCCGTATTTGCT (site CTTTCTCCTAG)	1.82
CTTTGCCCATGGACCGGTTTTCCCGGTAATCCGTATTTGAG (site CTTTGCCCTCT)	0.0229
CTTTGGGCATGGACCGGTTTTCCCGGTAATCCGTATTTGTC (site CTTTGGGCTGA)	0
CTTTTGGCATGGACCGGTTTTCCCGGTAATCCGTATTTGCT (site CATTTGGCTAG)	0
CTTTTGGCATGGACCGGTTTTCCCGGTAATCCGTATTTGCT (site CCTTTGGCTAG)	0
CTTTTGGCATGGACCGGTTTTCCCGGTAATCCGTATTTGCT (site CGTTTGGCTAG)	0.00381
CTTTTGGCATGGACCGGTTTTCCCGGTAATCCGTATTTGCT (site CTTTTGGCTAG)	0
GAAAACGCATGGACCGGTTTTCCCGGTAATCCGTATTTGAA (site GAAAACGCTTT)	2.16
GAAAAGTCATGGACCGGTTTTCCCGGTAATCCGTATTTGAA (site GAAAAGTCTTT)	2.84
GAAAATTCATGGACCGGTTTTCCCGGTAATCCGTATTTGTT (site GAAAATTCTAA)	0.97
GAAAATTCATGGACCGGTTTTCCCGGTAATCCGTATTTGTT (site GAACATTCTAA)	0
GAAAATTCATGGACCGGTTTTCCCGGTAATCCGTATTTGTT (site GAAGATTCTAA)	0.507
GAAAATTCATGGACCGGTTTTCCCGGTAATCCGTATTTGTT (site GAATATTCTAA)	1.79
GAAACACCATGGACCGGTTTTCCCGGTAATCCGTATTTGTT (site GAAACACCTAA)	0.0036
GAAACCTCATGGACCGGTTTTCCCGGTAATCCGTATTTGTG (site GAAACCTCTCA)	0.406
